We go through 8 compounds from patent US10538508B2, “Substituted amino triazoles useful as human chitinase inhibitors” (OncoArendi Therapeutics S.A., priority 2015, dated 2020).

For one assay, the target named is recombinant human CHIT1 (Homo sapiens (Human), UniProt Q13231). Description: Human CHIT1 Activity Assay. Conditions: recombinant human CHIT1, citrate buffer pH 5.2, 37° C., 60 minutes; read-out: Activity on hCHIT1, IC50. Format: biochemical.
A further assay addresses recombinant human AMCase (Homo sapiens (Human), UniProt Q9BZP6). Briefly: Human AMCase Activity Assay. The format is biochemical. Conditions: citrate buffer pH 5.2, 37° C., 60 minutes, read-out: Activity on hAMCase, IC50.

Chain of recombinant human CHIT1 (Q13231 22-466): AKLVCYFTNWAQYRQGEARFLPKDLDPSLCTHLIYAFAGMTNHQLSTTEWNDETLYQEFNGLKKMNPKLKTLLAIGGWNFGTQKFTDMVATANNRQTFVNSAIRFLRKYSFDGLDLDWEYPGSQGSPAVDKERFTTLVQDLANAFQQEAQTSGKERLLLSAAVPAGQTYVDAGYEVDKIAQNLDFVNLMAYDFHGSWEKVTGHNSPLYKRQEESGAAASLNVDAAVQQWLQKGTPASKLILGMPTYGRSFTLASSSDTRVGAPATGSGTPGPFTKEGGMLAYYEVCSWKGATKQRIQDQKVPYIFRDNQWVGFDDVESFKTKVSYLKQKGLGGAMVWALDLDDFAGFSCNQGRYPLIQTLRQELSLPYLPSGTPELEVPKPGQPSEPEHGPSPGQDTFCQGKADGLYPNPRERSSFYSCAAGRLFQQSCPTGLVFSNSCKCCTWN
Chain of recombinant human AMCase (Q9BZP6 22-476): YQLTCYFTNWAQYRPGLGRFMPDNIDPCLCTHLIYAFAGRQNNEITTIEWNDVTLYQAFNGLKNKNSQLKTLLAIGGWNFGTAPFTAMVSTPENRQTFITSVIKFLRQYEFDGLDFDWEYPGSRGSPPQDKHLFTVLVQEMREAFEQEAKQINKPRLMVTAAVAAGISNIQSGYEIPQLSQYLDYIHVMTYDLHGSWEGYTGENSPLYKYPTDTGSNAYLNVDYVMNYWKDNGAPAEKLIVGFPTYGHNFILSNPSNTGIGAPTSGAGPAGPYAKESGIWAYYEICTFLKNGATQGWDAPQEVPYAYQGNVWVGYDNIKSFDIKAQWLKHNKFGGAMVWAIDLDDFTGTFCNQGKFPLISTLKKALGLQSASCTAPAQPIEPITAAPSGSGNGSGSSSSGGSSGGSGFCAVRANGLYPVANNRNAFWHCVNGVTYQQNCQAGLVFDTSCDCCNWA

What is called IC50 is the concentration at which inhibition is half-maximal. As to `COC(C)(C)[C@H]1CN(C2CCN(c3nnc(N)[nH]3)CC2)[C@@H](Cc2ccc(Cl)cc2)CO1` [Example 14, 5-(4-((2R,5S)-5-(4-chlorobenzyl)-2-(2-methoxypropan-2-yl)morpholino)piperidin-1-yl)-4H-1,2,4-triazol-3-amine], the IC50 at recombinant human CHIT1 was under 0.1 µM.

Consider `CN1C[C@H](Cc2ccc(Cl)cc2)N(C2CCN(c3nnc(N)[nH]3)CC2)C[C@@H]1Cc1ccc(Cl)cc1` [Example 31, 5-(4-((2S,5S)-2,5-bis(4-chlorobenzyl)-4-methylpiperazin-1-yl)piperidin-1-yl)-4H-1,2,4-triazol-3-amine], for which the IC50 on recombinant human AMCase is under 0.1 µM.

In the case of `CC(C)C[C@H]1CN(C2CCN(c3nnc(N)[nH]3)CC2)[C@@H](Cc2ccc(Cl)cc2)CN1C` [Example 33, 5-(4-((2S,5S)-2-(4-chlorobenzyl)-5-isobutyl-4-methylpiperazin-1-yl)piperidin-1-yl)-4H-1,2,4-triazol-3-amine], the IC50 at recombinant human AMCase was under 0.1 µM.

As for `COC(=O)N1C[C@H](Cc2ccc(Cl)cc2)N(C2CCN(c3nnc(N)[nH]3)CC2)C[C@@H]1C` [Example 39, methyl (2S,5S)-4-(1-(5-amino-4H-1,2,4-triazol-3-yl)piperidin-4-yl)-5-(4-chlorobenzyl)-2-methylpiperazine-1-carboxylate], the IC50 on recombinant human CHIT1 fell in the range of 10 to 100 µM.

`C[C@H]1CN(C2CCN(c3nnc(N)[nH]3)CC2)[C@@H](Cc2ccc(Cl)cc2)C(C)(C)O1` [Example 53, 5-(4-((3S,6S)-3-(4-chlorobenzyl)-2,2,6-trimethylmorpholino)piperidin-1-yl)-4H-1,2,4-triazol-3-amine]: the IC50 on recombinant human CHIT1 lay within 10 to 100 µM.

Consider `C[C@H]1CN(C2CCN(c3nnc(N)[nH]3)CC2)[C@@H](Cc2ccc(Cl)cc2)CN1S(C)(=O)=O` [Example 37, 5-(4-((2S,5S)-2-(4-chlorobenzyl)-5-methyl-4-(methylsulfonyl)piperazin-1-yl)piperidin-1-yl)-4H-1,2,4-triazol-3-amine], for which the IC50 on recombinant human CHIT1 was 10 to 100 µM.

For the compound `COC(=O)CN1C[C@H](Cc2ccc(Cl)cc2)N(C2CCN(c3nnc(N)[nH]3)CC2)C[C@@H]1C` [Example 40, methyl 2-((2S,5S)-4-(1-(5-amino-4H-1,2,4-triazol-3-yl)piperidin-4-yl)-5-(4-chlorobenzyl)-2-methylpiperazin-1-yl)acetate], the IC50 on recombinant human CHIT1 was in the range of 0.1 to 1 µM.

Regarding `CN1C[C@H](Cc2ccc(Cl)cc2)N(C2CCN(c3nnc(N)[nH]3)CC2)C[C@@H]1CC1CCCCC1` [Example 32, 5-(4-((2 S, 5S)-2-(4-chlorobenzyl)-5-(cyclohexylmethyl)-4-methylpiperazin-1-yl)piperidin-1-yl)-4H-1,2,4-triazol-3-amine], the IC50 on recombinant human AMCase was under 0.1 µM.
